The text below walks through data of PMC7663645 (Molecules, 2020).

One assay deals with T1, MAO-B (Rattus norvegicus, UniProt P19643).
T1 construct: from tissue; host or cells: rat brain (membrane homogenates)
T1 sequence (P19643 1-520): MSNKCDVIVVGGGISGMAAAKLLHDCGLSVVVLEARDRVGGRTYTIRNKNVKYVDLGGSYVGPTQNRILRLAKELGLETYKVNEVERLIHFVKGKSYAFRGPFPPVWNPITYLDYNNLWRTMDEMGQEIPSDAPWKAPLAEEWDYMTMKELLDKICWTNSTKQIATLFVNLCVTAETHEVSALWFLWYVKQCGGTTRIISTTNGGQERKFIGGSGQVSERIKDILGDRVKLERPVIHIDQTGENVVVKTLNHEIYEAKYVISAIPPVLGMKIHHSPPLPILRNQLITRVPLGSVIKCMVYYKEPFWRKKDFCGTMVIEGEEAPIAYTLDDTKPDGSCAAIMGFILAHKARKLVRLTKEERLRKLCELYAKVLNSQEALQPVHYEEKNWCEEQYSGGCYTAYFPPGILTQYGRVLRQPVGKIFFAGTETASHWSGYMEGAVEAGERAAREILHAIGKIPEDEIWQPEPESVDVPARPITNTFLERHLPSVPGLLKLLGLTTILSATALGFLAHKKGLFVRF
Briefly: Radioligand competition binding assay with L-[^3H]Deprenyl on rat brain membrane homogenates. The following applies: homologous binding experiments, rat brain homogenates. Here is the method:
The affinity of the synthesized derivatives towards MAO-B was determined in radioligand competition binding assays. […] Non-specific binding was determined in the presence of 10 μM of rasagiline. The reaction was terminated by rapid filtration using Whatman GF/B glass-fiber filters, pre-soaked in 0.3% polyethyleneimine, and a 48-channel harvester (Biomedical Research and Development Laboratories, Gaithersburg, MD, USA) followed by washing four times with ice-cold TRIS-HCl buffer. Filter-bound radioactivity was quantified by liquid scintillation counting. The results represent two single experiments, each performed in triplicate. […] The data were analyzed with GraphPad Prism, Version 4.1 (GraphPad Inc., La Jolla, CA, USA).
A general note: In a radioligand displacement assay an active substance lowers the binding of a labelled ligand.
Compound L-[^3H]Deprenyl [reference compound] yielded a Bmax of 2.29 ± 2.08 pmol/mg protein.

The assay is the same for the next values; noted with them: read-out: IC50 (MAO-B binding affinity).
As for `O=C(c1ccc(F)cc1)N1CCN(C/C=C/c2ccccc2)CC1` [Compound 8, (E)-(4-cinnamylpiperazin-1-yl)(4-fluorophenyl)methanone], the IC50 (commonly the point on the concentration scale where inhibition reaches its midpoint) is more than 10 µM.

With `Fc1cccc(N2CCN(CC=Cc3ccccc3)CC2)n1` [Compound 9, 1-Cinnamyl-4-(6-fluoropyridin-2-yl)piperazine], the IC50 was more than 10 µM.

In the case of `Fc1ccc(N2CCN(CC=Cc3ccccc3)CC2)cn1` [Compound 10, 1-Cinnamyl-4-(6-fluoropyridin-3-yl)piperazine], the IC50 was more than 10 µM.

Turning to `Fc1cc(N2CCN(CC=Cc3ccccc3)CC2)ccn1` [Compound 11, 1-Cinnamyl-4-(2-fluoropyridin-4-yl)piperazine], the IC50 was more than 10 µM.

Take `Fc1ncccc1N1CCN(CC=Cc2ccccc2)CC1` [Compound 12, 1-Cinnamyl-4-(2-fluoropyridin-3-yl)piperazine]: the IC50 was more than 10 µM.

In the case of `O=C(c1ccc(F)cc1)N1CCN(C/C=C/c2ccccc2F)CC1` [Compound 13, (E)-(4-Fluorophenyl)(4-(3-(2-fluorophenyl)allyl)piperazin-1-yl)methanone], the concentration for half-maximal inhibition (IC50) is more than 10 µM.

`Fc1cccc(N2CCN(C/C=C/c3ccccc3F)CC2)n1` [Compound 14, (E)-1-(3-(2-Fluorophenyl)allyl)-4-(6-fluoropyridin-2-yl)piperazine]: the half-maximal inhibitory concentration (IC50) is more than 10 µM.

`Fc1ccc(N2CCN(C/C=C/c3ccccc3F)CC2)cn1` [Compound 15, (E)-1-(3-(2-Fluorophenyl)allyl)-4-(6-fluoropyridin-3-yl)piperazine]: the IC50 was more than 10 µM.

For the compound `Fc1cc(N2CCN(C/C=C/c3ccccc3F)CC2)ccn1` [Compound 16, (E)-1-(3-(2-Fluorophenyl)allyl)-4-(2-fluoropyridin-4-yl)piperazine], the IC50 was more than 10 µM.

On to `Fc1ccccc1/C=C/CN1CCN(c2cccnc2F)CC1` [Compound 17, (E)-1-(3-(2-Fluorophenyl)allyl)-4-(2-fluoropyridin-3-yl)piperazine], for which the half-inhibitory concentration (IC50) is more than 10 µM.

The test system of another assay is recombinant human MAO-B.
Test: not given
Also on record: method as in earlier work. As to conditions: cited from earlier work.
With L-[^18F]Deprenyl, the half-maximal inhibitory concentration (IC50) is 0.227 ± 0.0368 µM.

The subject of another assay is MAO-B.
Test: not given
Also on record: method as in PMID 31060887. The following applies: cited from earlier work.
As for `COC[C@@H]1CN(c2noc3cc(OCCCCC[18F])ccc23)C(=O)O1` [[^18F]6], the half-maximal inhibitory concentration (IC50) was 0.11 µM.
